Assay results from PubChem BioAssay AID1845209 (Molecular Pharmacology Branch, DTP, NCI, 2023).
Several values for one entry are separate records, joined by “and”; a condition that tells them apart may be missing. Equal values may be shown once.

System: NCI-H211 tumor spheroids, viability percent test/control
Assay: Anticancer human tumor NCI-H211 cell line growth inhibition;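 also: spheroids exposed to agents for seven days before readout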
Conditions: spheroids with HUVEC and MSC; for viability, T/C: stronger effect = lower value; active = viability on the fitted dose curve at most 10% of control; inactive = the rest
Outline: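 Single agents and combinations were tested on spheroids built from tumor cells plus HUVEC and hMSC, at half-log dilutions starting at or near clinical Cmax, else 10 microM; final DMSO 0.25% (v/v).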

[2H]c1nc(C)nc([2H])c1-c1cc(NC[C@@H](C)c2cccc3c(C(=O)NC)ccnc23)ncn1 + COc1cc2c(cc1O)CCNC21CSC2c3c(OC(C)=O)c(C)c4c(c3C(COC1=O)N1C(O)C3Cc5cc(C)c(OC)c(O)c5C(C21)N3C)OCO4
> 10000 nM: IC50 (curve of first compound, second compound 30 pM)
inactive: viability, T/C (second compound 30 pM, first compound 0.0316 µM) 103% | viability, T/C (second compound 30 pM, first compound 0.1 µM) 104% | viability, T/C (second compound 30 pM, first compound 0.316 µM) 100% | viability, T/C (second compound 30 pM, first compound 1 µM) 99.6% | viability, T/C (second compound 30 pM, first compound 3.16 µM) 102% | viability, T/C (second compound 30 pM, first compound 10 µM) 78.2% | viability, T/C (second compound 94.9 pM, first compound 0.0316 µM) 16.1% | viability, T/C (second compound 94.9 pM, first compound 0.1 µM) 15.9% | viability, T/C (second compound 94.9 pM, first compound 0.316 µM) 19.4% | viability, T/C (second compound 94.9 pM, first compound 1 µM) 17.4%
active: viability, T/C (second compound 94.9 pM, first compound 3.16 µM) 7.6% | viability, T/C (second compound 94.9 pM, first compound 10 µM) 3.55% | viability, T/C (second compound 0.0003 µM, first compound 0.0316 µM) 0.71% | viability, T/C (second compound 0.0003 µM, first compound 0.1 µM) 0.97% | viability, T/C (second compound 0.0003 µM, first compound 0.316 µM) 0.84% | viability, T/C (second compound 0.0003 µM, first compound 1 µM) 0.85% | viability, T/C (second compound 0.0003 µM, first compound 3.16 µM) 0.8% | viability, T/C (second compound 0.0003 µM, first compound 10 µM) 1.01% | viability, T/C (second compound 0.000949 µM, first compound 0.0316 µM) 0.83% | viability, T/C (second compound 0.000949 µM, first compound 0.1 µM) 0.71% | viability, T/C (second compound 0.000949 µM, first compound 0.316 µM) 0.61% | viability, T/C (second compound 0.000949 µM, first compound 1 µM) 0.65% | viability, T/C (second compound 0.000949 µM, first compound 3.16 µM) 0.74% | viability, T/C (second compound 0.000949 µM, first compound 10 µM) 0.72% | viability, T/C (second compound 0.003 µM, first compound 0.0316 µM) 0.21% | viability, T/C (second compound 0.003 µM, first compound 0.1 µM) 0.21% | viability, T/C (second compound 0.003 µM, first compound 0.316 µM) 0.19% | viability, T/C (second compound 0.003 µM, first compound 1 µM) 0.19% | viability, T/C (second compound 0.003 µM, first compound 3.16 µM) 0.19% | viability, T/C (second compound 0.003 µM, first compound 10 µM) 0.23%
< 31.6 nM: IC50 (curve of first compound, second compound 94.9 pM) | IC50 (curve of first compound, second compound 0.0003 µM) | IC50 (curve of first compound, second compound 0.000949 µM) | IC50 (curve of first compound, second compound 0.003 µM)

Cc1cc(C)c(CNC(=O)c2cc(-c3ccc(CN4CCOCC4)cc3)cc3c2cnn3C2CCCC2)c(=O)[nH]1 + Cn1nnc2c(C(N)=O)ncn2c1=O
< 31.6 nM: IC50 (curve of first compound, second compound 100 µM)
inactive: viability, T/C (second compound 1 µM, first compound 0.0316 µM) 92.3% | viability, T/C (second compound 1 µM, first compound 0.1 µM) 81.4% | viability, T/C (second compound 1 µM, first compound 0.316 µM) 70% | viability, T/C (second compound 1 µM, first compound 1 µM) 70.6% | viability, T/C (second compound 1 µM, first compound 3.16 µM) 72.7% | viability, T/C (second compound 1 µM, first compound 10 µM) 32.3% | viability, T/C (second compound 3.16 µM, first compound 0.0316 µM) 95.3% | viability, T/C (second compound 3.16 µM, first compound 0.1 µM) 94.7% | viability, T/C (second compound 3.16 µM, first compound 0.316 µM) 84% | viability, T/C (second compound 3.16 µM, first compound 1 µM) 86.7% | viability, T/C (second compound 3.16 µM, first compound 3.16 µM) 71.3% | viability, T/C (second compound 3.16 µM, first compound 10 µM) 45% | viability, T/C (second compound 10 µM, first compound 0.0316 µM) 95.4% | viability, T/C (second compound 10 µM, first compound 0.1 µM) 93.2% | viability, T/C (second compound 10 µM, first compound 0.316 µM) 66.7% | viability, T/C (second compound 10 µM, first compound 1 µM) 68.7% | viability, T/C (second compound 10 µM, first compound 3.16 µM) 37.9% | viability, T/C (second compound 10 µM, first compound 10 µM) 36.8% | viability, T/C (second compound 31.6 µM, first compound 0.0316 µM) 58.4% | viability, T/C (second compound 31.6 µM, first compound 0.1 µM) 47.4% | viability, T/C (second compound 31.6 µM, first compound 0.316 µM) 35.1% | viability, T/C (second compound 31.6 µM, first compound 1 µM) 33.7% | viability, T/C (second compound 31.6 µM, first compound 3.16 µM) 10.6% | viability, T/C (second compound 31.6 µM, first compound 10 µM) 19.9% | viability, T/C (second compound 100 µM, first compound 0.0316 µM) 33.6% | viability, T/C (second compound 100 µM, first compound 0.1 µM) 21.7% | viability, T/C (second compound 100 µM, first compound 0.316 µM) 18.9% | viability, T/C (second compound 100 µM, first compound 1 µM) 16.3% | viability, T/C (second compound 100 µM, first compound 3.16 µM) 10.4%
8080 nM: IC50 (curve of first compound, second compound 3.16 µM)
81 nM: IC50 (curve of first compound, second compound 31.6 µM)
2060 nM: IC50 (curve of first compound, second compound 10 µM)
active: viability, T/C (second compound 100 µM, first compound 10 µM) 7.54%
5600 nM: IC50 (curve of first compound, second compound 1 µM)

Cc1cc(C)c(CNC(=O)c2cc(-c3ccc(CN4CCOCC4)cc3)cc3c2cnn3C2CCCC2)c(=O)[nH]1
inactive: viability, T/C (compound 0.0316 µM) 106% and 79.2% and 96.2% | viability, T/C (compound 0.1 µM) 102% (2×) and 89.3% | viability, T/C (compound 0.316 µM) 102% and 95.7% and 100% | viability, T/C (compound 1 µM) 96.7% and 87.9% and 102% | viability, T/C (compound 3.16 µM) 91.7% and 82.2% and 104% | viability, T/C (compound 10 µM) 52% and 33.5% and 63.2%
> 10000 nM and 6780 nM: IC50 (curve of compound)
